Laboratory results taken from patent publication US20260355196A1, “INHIBITORS AND DEGRADERS OF PIP4K PROTEIN” (Larkspur Biosciences, Inc., priority 2023, published 2026).

Target: T1, PIP4K2C (Homo sapiens, UniProt Q8TBX8)
T1 sequence (Q8TBX8 1-421): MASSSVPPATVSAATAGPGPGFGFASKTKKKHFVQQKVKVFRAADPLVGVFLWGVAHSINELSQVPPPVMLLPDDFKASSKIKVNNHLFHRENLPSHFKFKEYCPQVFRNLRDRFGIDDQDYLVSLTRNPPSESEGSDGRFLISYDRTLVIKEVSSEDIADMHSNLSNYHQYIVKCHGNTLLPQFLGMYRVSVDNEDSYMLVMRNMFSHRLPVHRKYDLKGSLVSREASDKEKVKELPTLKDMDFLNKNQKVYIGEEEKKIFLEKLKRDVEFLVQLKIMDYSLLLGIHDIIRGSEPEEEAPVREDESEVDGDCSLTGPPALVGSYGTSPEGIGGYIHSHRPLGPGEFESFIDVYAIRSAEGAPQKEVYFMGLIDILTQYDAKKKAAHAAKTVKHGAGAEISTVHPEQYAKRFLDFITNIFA
Assay: HiBiT PIP4K2C degradation assay in MOLT-4 cells (endogenous PIP4K2C C-terminally tagged with HiBiT)
Assay type: cell-based
Set-up: untagged in primary human PBMCs and monocyte-derived dendritic cells
Details: 6 hours of incubation time, rather than 24 hours; MOLT-4, top concentration 10 micromolar; read-out: HiBIT-degradation MOLT4 PIP4k2C DC50 (6 hours, marked *)
Method in brief: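 Endogenous PIP4K2C was C-terminally HiBiT-tagged by CRISPR-Cas9 in MOLT-4 cells, which were treated with a 10-point, 3-fold dilution series from 10 micromolar in duplicate for 24 or 6 hours at 37 C. Remaining protein was read by HiBiT lytic luminescence, and DC50 came from a Hill fit.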

DC50	SMILES
< 500 nM	O=C1CCC(Nc2ccc(C3CCN([C@H]4CC[C@H](C(=O)N[C@H]5CC[C@H](Nc6ncc(F)c(-c7ccnc(N8CCOCC8=O)c7)n6)CC5)CC4)CC3)c(F)c2)C(=O)N1 (stereo partly drawn) [Compound 570, trans-(1r,4R)-4-(4-(4-((2,6-dioxopiperidin-3-yl)amino)-2-fluorophenyl)piperidin-1-yl)-N-((1r,4R)-4-((5-fluoro-4-(2-(3-oxomorpholino)pyridin-4-yl)pyrimidin-2-yl)amino)cyclohexyl)cyclohexane-1-carboxamide]
< 500 nM	O=C1CCC(Nc2ccc(C3CCN([C@H]4CC[C@H](C(=O)N[C@H]5CC[C@H](Nc6ncc(F)c(-c7ccnc(N8CCCCC8=O)c7)n6)CC5)CC4)CC3)c(F)c2)C(=O)N1 (stereo partly drawn) [Compound 571, trans-(1r,4R)-4-(4-(4-((2,6-dioxopiperidin-3-yl)amino)-2-fluorophenyl)piperidin-1-yl)-N-((1r,4R)-4-((5-fluoro-4-(2-(2-oxopiperidin-1-yl)pyridin-4-yl)pyrimidin-2-yl)amino)cyclohexyl)cyclohexane-1-carboxamide]
< 500 nM	O=C1CCC(Nc2ccc(C3CCN([C@H]4CC[C@H](C(=O)N[C@H]5CC[C@H](Nc6ncc(F)c(-c7ccnc(N8CCCOC8=O)c7)n6)CC5)CC4)CC3)c(F)c2)C(=O)N1 (stereo partly drawn) [Compound 572, trans-(1r,4R)-4-(4-(4-((2,6-dioxopiperidin-3-yl)amino)-2-fluorophenyl)piperidin-1-yl)-N-((1r,4R)-4-((5-fluoro-4-(2-(2-oxo-1,3-oxazinan-3-yl)pyridin-4-yl)pyrimidin-2-yl)amino)cyclohexyl)cyclohexane-1-carboxamide]
< 500 nM	O=C1CCC(Nc2ccc(C3CCN([C@H]4CC[C@H](C(=O)N[C@H]5CC[C@H](Nc6ncc(F)c(-c7ccnc(-n8ccccc8=O)c7)n6)CC5)CC4)CC3)c(F)c2)C(=O)N1 (stereo partly drawn) [Compound 573, trans-(1r,4R)-4-(4-(4-((2,6-dioxopiperidin-3-yl)amino)-2-fluorophenyl)piperidin-1-yl)-N-((1r,4R)-4-((5-fluoro-4-(2-oxo-2H-[1,2′-bipyridin]-4′-yl)pyrimidin-2-yl)amino)cyclohexyl)cyclohexane-1-carboxamide]
< 500 nM	Cc1ccc(=O)n(-c2cccc(-c3nc(N[C@H]4CC[C@H](NC(=O)[C@H]5CC[C@H](N6CCC(c7ccc(NC8CCC(=O)NC8=O)cc7F)CC6)CC5)CC4)ncc3F)c2)c1 (stereo partly drawn) [Compound 574, trans-(1r,4R)-4-(4-(4-((2,6-dioxopiperidin-3-yl)amino)-2-fluorophenyl)piperidin-1-yl)-N-((1r,4R)-4-((5-fluoro-4-(3-(5-methyl-2-oxopyridin-1 (2H)-yl)phenyl)pyrimidin-2-yl)amino)cyclohexyl)cyclohexane-1-carboxamide]
< 500 nM	O=C1CCC(Nc2ccc(N3CCC(N4CC5(CC(C(=O)N[C@H]6CC[C@H](Nc7ncc(F)c(-c8cccc(-n9ccccc9=O)c8)n7)CC6)C5)C4)CC3)c(F)c2)C(=O)N1 (stereo partly drawn) [Compound 575, trans-2-(1-(4-((2,6-dioxopiperidin-3-yl)amino)-2-fluorophenyl)piperidin-4-yl)-N-((1r,4r)-4-((5-fluoro-4-(3-(2-oxopyridin-1(2H)-yl)phenyl)pyrimidin-2-yl)amino)cyclohexyl)-2-azaspiro[3.3]heptane-6-carboxamide]
< 500 nM	O=C1CCC(Nc2ccc(C3CCN([C@H]4CC[C@H](C(=O)N[C@H]5CC[C@H](Nc6ncc(F)c(-c7cccc(N8CCCOC8=O)c7)n6)CC5)CC4)CC3)c(F)c2)C(=O)N1 (stereo partly drawn) [Compound 576, trans-(1r,4R)-4-(4-(4-((2,6-dioxopiperidin-3-yl)amino)-2-fluorophenyl)piperidin-1-yl)-N-((1r,4R)-4-((5-fluoro-4-(3-(2-oxo-1,3-oxazinan-3-yl)phenyl)pyrimidin-2-yl)amino)cyclohexyl)cyclohexane-1-carboxamide]
> 5000 nM	O=C1CC[C@@H](Nc2ccc(N3CCC(N4CCC(C(=O)N[C@H]5CC[C@H](Nc6ncc(F)c(-c7cccc(-c8ccc[nH]c8=O)c7)n6)CC5)CC4)CC3)c(F)c2)C(=O)N1 [Compound 577, trans-1′-(4-(((R)-2,6-dioxopiperidin-3-yl)amino)-2-fluorophenyl)-N-((1r,4r)-4-((5-fluoro-4-(3-(2-oxo-1,2-dihydropyridin-3-yl)phenyl)pyrimidin-2-yl)amino)cyclohexyl)-[1,4′-bipiperidine]-4-carboxamide]
< 500 nM	O=C1CCC(Nc2ccc(C3CCN(CC4(O)CCN(C(=O)[C@H]5CC[C@H](Nc6ncc(F)c(-c7cccc(N8CCOCC8=O)c7)n6)CC5)CC4)CC3)c(F)c2)C(=O)N1 (stereo partly drawn) [Compound 578, trans-3-((3-fluoro-4-(1-((1-(4-((5-fluoro-4-(3-(3-oxomorpholino)phenyl)pyrimidin-2-yl)amino)cyclohexane-1-carbonyl)-4-hydroxypiperidin-4-yl)methyl)piperidin-4-yl)phenyl)amino)piperidine-2,6-dione]
< 500 nM	O=C1CCC(Nc2ccc(C3CCN(CC4(O)CCN(C(=O)[C@H]5CC[C@H](Nc6ncc(F)c(-c7cccc(N8CCCCC8=O)c7)n6)CC5)CC4)CC3)c(F)c2)C(=O)N1 (stereo partly drawn) [Compound 579, 3-((3-fluoro-4-(1-((1-(trans-4-((5-fluoro-4-(3-(2-oxopiperidin-1-yl)phenyl)pyrimidin-2-yl)amino)cyclohexane-1-carbonyl)-4-hydroxypiperidin-4-yl)methyl)piperidin-4-yl)phenyl)amino)piperidine-2,6-dione]
< 500 nM	O=C1CCC(Nc2ccc(C3CCN(CC4(O)CCN(C(=O)[C@H]5CC[C@H](Nc6ncc(F)c(-c7cccc(N8CCCOC8=O)c7)n6)CC5)CC4)CC3)c(F)c2)C(=O)N1 (stereo partly drawn) [Compound 580, trans-3-((3-fluoro-4-(1-((1-(4-((5-fluoro-4-(3-(2-oxo-1,3-oxazinan-3-yl)phenyl)pyrimidin-2-yl)amino)cyclohexane-1-carbonyl)-4-hydroxypiperidin-4-yl)methyl)piperidin-4-yl)phenyl)amino)piperidine-2,6-dione]
< 500 nM	O=C1CCC(Nc2ccc(C3CCN(CC4(O)CCN(C(=O)[C@H]5CC[C@H](Nc6ncc(F)c(-c7cccc(-c8ccc[nH]c8=O)c7)n6)CC5)CC4)CC3)c(F)c2)C(=O)N1 (stereo partly drawn) [Compound 581, 3-((3-fluoro-4-(1-((1-(trans-4-((5-fluoro-4-(3-(2-oxo-1,2-dihydropyridin-3-yl)phenyl)pyrimidin-2-yl)amino)cyclohexane-1-carbonyl)-4-hydroxypiperidin-4-yl)methyl)piperidin-4-yl)phenyl)amino)piperidine-2,6-dione]
< 500 nM	O=C1CCC(Nc2ccc(N3CCN(CC4(O)CCN(C(=O)[C@H]5CC[C@H](Nc6ncc(F)c(-c7cccc(N8CCCCC8=O)c7)n6)CC5)CC4)CC3)c(F)c2)C(=O)N1 (stereo partly drawn) [Compound 582, trans-3-((3-fluoro-4-(4-((1-(4-((5-fluoro-4-(3-(2-oxopiperidin-1-yl)phenyl)pyrimidin-2-yl)amino)cyclohexane-1-carbonyl)-4-hydroxypiperidin-4-yl)methyl)piperazin-1-yl)phenyl)amino)piperidine-2,6-dione]
< 500 nM	O=C1CCC(Nc2ccc(N3CCN(CC4(O)CCN(C(=O)[C@H]5CC[C@H](Nc6ncc(F)c(-c7cccc(N8CCCOC8=O)c7)n6)CC5)CC4)CC3)c(F)c2)C(=O)N1 (stereo partly drawn) [Compound 583, trans-3-((3-fluoro-4-(4-((1-(4-((5-fluoro-4-(3-(2-oxo-1,3-oxazinan-3-yl)phenyl)pyrimidin-2-yl)amino)cyclohexane-1-carbonyl)-4-hydroxypiperidin-4-yl)methyl)piperazin-1-yl)phenyl)amino)piperidine-2,6-dione]
